Measurements reported in patent publication US9622996B2, “Use of adrenergic beta-E-receptor blockers in cancer treatment” (priority 2012, dated 2017).

Assays:
[1] = tested on: MCF-7 breast carcinoma cells; assay: Annexin V/PI flow cytometry, apoptosis and cell cycle of MCF-7 cells; format: cell-based; conditions: P<0.01
Procedure: (§1) A target sequence was selected from the DNA sequence of β3AR gene using computer program. The DNA fragment of the target sequence was synthesized and cloned on a vector. Human U6 promoter was cloned to pcDNA3/neo vector to clone DNA fragment of shRNA. The plasmid vector was tranfected into cells using lipofection2000. 48 h following the tranfection, siRNA was expressed in the cells. The cells were subjected to Annexin V/PI double staining. Apoptosis rate was determined by flow cytometry.

HL-60 leukaemia cells = assay: miR-16-1/miR-15a expression, apoptosis and mitochondrial readouts in HL-60 cells; format: cell-based; conditions: HL-60, 10^−7M
Procedure: (§2) SR59230A promoted cell apoptosis by increase expression of miR-16-1 and miR-15a in HL-60 and K562 leukaemia cells. SR59230A at 10^−7M was used to treat HL-60 and K562 leukaemia cells. 8 h following the treatment, total microRNA was extract and then reversely transcribed for quantitative PCR to determine the expression of miR-16-1 and miR-15a. Flow cytometry was used to detect earlier cell apoptosis label Annexin V/PI and apoptosis rate. MitoTracker Red CMXRos was used to detect number of mitochondrion. JC1 was used to determine mitochondrial membrane potential. Autophagosome was determined by monodansylcadaverine (MDC) staining, and observed and countered under transmission electron microscope. Intracellular ATP level was determined by ATP Kit. […] SR59230A could decrease mitochondrial membrane potential of HL-60 and K562 cells, induce mitophagy, decrease mitochondrial content and reduce intracellular ATP level.

MCF-7 implant tumor = MCF-7 implant tumor model in nude mice; format: in vivo
Procedure: SR59230A reduced implant tumor volume in MCF-7 nude mice. 10^7 of MCF-7 cells were subcutaneously injected into 5-week old female nude mice to establish implant tumor model. 10 days followed the injection, tumor volume increased to about 250 mm^3. The mice were randomly divided into two groups with each group having 8 mice. The treatment group was peritoneally injected with SR56230A at 100 nmol for each mouse. The injection was carried every two days and lasted for 5 weeks. The control group is administrated with solvents with same volume. The length, width and height of tumors were determined using a vernier caliper prior to each administration, so as to calculate tumor volume. The tumor growth curve was shown in FIG. 8, in which SR59230A treated mice had slower implant tumor growth rat when compared to control group (FIG. 9). […] In order to determine expression levels of phospho-4E-BP1(Thr37/46) and p62, the tumor tissue was obtained for paraffin embedding and section and then immunohistochemistry, and proteins were extracted from the tumor tissue for Western blot.

H1299 lung cancer cells = assay: Apoptosis of H1299 lung cancer cells; format: cell-based
Procedure: as §1

H1975 lung cancer cells = assay: Apoptosis of H1975 lung cancer cells; format: cell-based
Procedure: as §1

[2] = tested on: multidrug resistance-associated protein 1 (MRP1); assay: 5-CFDA (MRP1 substrate) efflux staining in PC-3 cells; format: cell-based, Human; conditions: PC-3, 10^−7M, 18 h, confocal microscopy
Procedure: Beta-3 receptor activated multidrug resistance-associated protein 1 (MRP1). Human prostatic cancer cells PC-3 was used to be treated with SR59230A and BRL37344, each at 10^−7M, for 18 h and then stained with substrate of MRP1, 5-CFDA and observed under confocal microscopy.

MCF-7 cells = assay: Western blot of p53 and SIRT1 in MCF-7 cells treated with SR59230A; format: cell-based; conditions: 24 h, with increasing SR59230A concentration
Procedure: MCF-7 cells were treated with SR59230A at different concentrations. After 24 h, the cells were lysed to extract total protein. The protein concentration was determined by BCA method. 10 μg of the protein was used to perform 10% SDS PAGE, and then transferred to a PVDF membrane. The membrane was blocked for 1 h with TBST (10 mmol/L Tris HCl, pH 7.5, 150 mmol/L NaCl, 0.1% Tween 20) containing 4% fat-free milk, and incubated overnight with p53 antibody (1:1000) and SIRT1 antibody (1:1000) at 4° C. The membrane was further incubated with secondary antibodies for 1 h after washing, followed by ECL color development. The same procedure was repeated 3 times. The gray values of protein bands were obtained through Fluorchem 8900 software and the ratio of target band to reference band (GAPDH) was calculated. Results are shown in FIGS. 1 and 2, wherein the expression level of p53 was increased as the increase of SR59230A concentration, while SIRT1 was decreased.

MCF7 cells = assay: Mitochondrial autophagy in MCF7 cells (MitoTracker, LC3II Western blot); format: cell-based; conditions: MCF7, 10^−7M, 18 h
Procedure: β3 receptor regulated mitochondrial autophagy. MCF7 cells were treated by SR59230A (10^−7M) for 18 h. MitoTracker was used to label mitochondrion at 37° C. for 20 min. The cells were washed with PBS for 3 times and fluorescent detection was then carried out by fluorescent confocal microscopy and flow cytometry. The autophagy labeling protein LC3II was measured by Western blot.

K562 leukaemia cells = assay: miR-16-1/miR-15a expression, apoptosis and mitochondrial readouts in K562 cells; format: cell-based; conditions: K562, 10^−7M
Procedure: as §2

[3] = tested on: prostatic cancer cells PC-3; assay: Autophagy of prostatic cancer cells PC-3 (FIG. 17); format: cell-based, Human; conditions: FIG. 17 legend only
[4] = tested on: adipose-derived stem cells of rats; assay: β-Galactosidase staining of adipose-derived stem cells; format: cell-based, rat; conditions: 10^−7M, 24 h, compared with SR59230A
Procedure: Blockage of the β-3 receptor could increase level of β-galactosidase in adipose-derived stem cells and promote stem cell aging. BRL37344 and SR59230A were used to treat adipose-derived stem cells of rats each at 10^−7M. After 24 h, cells were fixed using paraformaldehyde, and stained and photographed according to the specification of β-Galactosidase Staining Kit. BRL37344 decreased the level of β-galactosidase in adipose-derived stem cells when compared with SR59230A, indicating agonisting of adrenergic β3 receptors of adipose-derived stem cells achieves anti-aging effect.

[5] = tested on: rat myocardial infarction models; assay: Rat myocardial infarction (heart failure) model, ligation of left coronary artery; format: in vivo; conditions: 1 mg/kg/day intraperitoneal, 4 weeks
Procedure: In rat myocardial infarction models, activation of the β-3 receptor could increase level of SIRT1 in cardiomyocyte, inhibit expression of p53, improve the cardiac function and achieve anti-apoptosis effect. The myocardial infarction model was created by ligation of anterior descending branch of rat left coronary artery. BRL37344 was intraperitoneally injected at 1 mg/kg/day, and heart B-ultrasonography was performed after 4 weeks. Heart tissue was determined for apoptosis (tunel method) and expression levels of SIRT1 and p53 (western blot). The ratio of left ventricular weight to body weight (LVW/BW) is determined. It can be seen from the results shown in FIGS. 3 to 5, that BRL37344 decreases p53 expression, cardiac cell apoptosis, and value of LVW/BW of heart failure rat, increases SIRT1 expression, alleviate cardiac hypertrophy and improve cardiac function.

[6] = tested on: cardiac fibroblast of rats; assay: mTOR/α-Tubulin and Rictor/α-Tubulin double staining in cardiac fibroblast; format: cell-based, rat; conditions: 10^−7M, confocal microscope
Text: Beta-3 receptor promoted binding of mTORC2 to α-Tubulin in spindle apparatus. BRL37344 was used to treat cardiac fibroblast of rats at 10^−7M. The cells were undergone mTOR/α-Tubulin immunohistochemical double staining and Rictor/α-Tubulin immunohistochemical double staining, and observed under confocal microscope.

rat cardiomyocyte = assay: Western blot of mTOR and Rictor proteins (mTOR/Rictor complex); format: cell-based; conditions: 10^−7M, 24 h, compared to the control shRNA
Procedure: Activation of the β3 receptor could increase mTOR/Rictor complex in MCF-7 cells. shRNA of β3 adrenergic receptor, control shRNA, BRL37344 and SR59230A were used to treat rat cardiomyocyte each at 10^−7M. After 24 h, total protein was extracted and subjected to western blot to determine the expression amount of mTOR and Rictor proteins.

[7] = 8 h, quantitative PCR, compared to control
[8] = Annexin V/PI flow cytometry, P<0.01
[9] = 100 nmol per mouse peritoneally every two days for 5 weeks
[10] = tumor tissue, immunohistochemistry and Western blot

CCc1ccccc1OC[C@@H](O)CN[C@H]1CCCc2ccccc21 [SR59230A]
apoptosis rate versus control group [1]: significant increase
mitophagy (HL-60 leukaemia cells): induce
expression of miR-15a (HL-60 leukaemia cells; [7]): significantly increased
expression of miR-16-1 (HL-60 leukaemia cells; [7]): significantly increased
intracellular ATP level (HL-60 leukaemia cells; ATP Kit): reduce
apoptosis rate (HL-60 leukaemia cells; [8]): increased
mitochondrial membrane potential (HL-60 leukaemia cells; JC1): decrease
mitochondrial content (HL-60 leukaemia cells; MitoTracker Red CMXRos): decrease
relative tumor growth rate T/C (%) (MCF-7 implant tumor; [9]): 39.80%
tumor inhibition rate (MCF-7 implant tumor; [9]): 57.97%
tumor volume based on the control group (MCF-7 implant tumor; [9]): 42.03%
implant tumor growth rate compared to control group (MCF-7 implant tumor; 100 nmol per mouse peritoneally every two days for 5 weeks, tumor growth curve): slower
glycolysis in tumors (MCF-7 implant tumor; PET/CT detection): inhibited
expression of p62 (MCF-7 implant tumor; [10]): reduced
expression of phospho-4E-BP1 (MCF-7 implant tumor; [10]): reduced
mTOR activity in tumors (MCF-7 implant tumor; [10]): inhibited
mitophagy in tumor cells (MCF-7 implant tumor; tumor tissue, transmission electron microscope): enhanced
apoptosis of H1299 cells (H1299 lung cancer cells): promoted apoptosis
apoptosis of H1975 cells (H1975 lung cancer cells): promoted apoptosis
5-CFDA efflux (MRP1 substrate) [2]: inhibited
expression level of SIRT1 (MCF-7 cells): decreased
expression level of p53 (MCF-7 cells): increased
autophagosome (MCF7 cells): increased
mitochondrion amount (MCF7 cells; MitoTracker): significantly decreased
LC3II expression (MCF7 cells; Western blot): increased
mitophagy (K562 leukaemia cells): induce
expression of miR-15a (K562 leukaemia cells; [7]): significantly increased
expression of miR-16-1 (K562 leukaemia cells; [7]): significantly increased
intracellular ATP level (K562 leukaemia cells; ATP Kit): reduce
apoptosis rate (K562 leukaemia cells; [8]): increased
mitochondrial membrane potential (K562 leukaemia cells; JC1): decrease
mitochondrial content (K562 leukaemia cells; MitoTracker Red CMXRos): decrease
autophagy of prostatic cancer cells PC-3 [3]: increased

C[C@H](Cc1ccc(OCC(=O)O)cc1)NC[C@H](O)c1cccc(Cl)c1 [BRL37344]
level of β-galactosidase [4]: decreased
cardiac hypertrophy [5]: alleviate
ratio of left ventricular weight to body weight (LVW/BW) [5]: decreases
cardiac function ([5]; heart B-ultrasonography): improve
cardiac cell apoptosis ([5]; tunel method): decreases
SIRT1 expression in heart tissue ([5]; western blot): increases
p53 expression in heart tissue ([5]; western blot): decreases
binding of Rictor to α-Tubulin [6]: promoted
binding of mTOR to α-Tubulin in spindle apparatus [6]: promoted
mTOR/Rictor complex (rat cardiomyocyte): increased
